The values below come from publication PMC8745178, “Methyl 2-Halo-4-Substituted-5-Sulfamoyl-Benzoates as High Affinity and Selective Inhibitors of Carbonic Anhydrase IX” (International Journal of Molecular Sciences, 2021).

In one data set the target is CAI (Homo sapiens, UniProt P00915). The data set can be described thus: fluorescent thermal shift assay (FTSA), CAI. In kind it is binding. The conditions noted are these: 37 °C; for ΔGintr CAI: converted from Kd_intr, independent of pH; for ΔGobs CAI: converted from Kd_obs, pH 7.0, FTSA.
For another data set, the target named is CAII (Homo sapiens, UniProt P00918). Briefly: fluorescent thermal shift assay (FTSA), CAII. In kind it is binding. The conditions noted are these: 37 °C; for ΔGintr CAII: converted from Kd_intr, independent of pH; for ΔGobs CAII: converted from Kd_obs, pH 7.0, FTSA.
The target in the next data set is CAIII (Homo sapiens, UniProt P07451). The data set can be described thus: fluorescent thermal shift assay (FTSA), CAIII. In kind it is binding. The conditions noted are these: 37 °C; for ΔGintr CAIII: converted from Kd_intr, independent of pH; for ΔGobs CAIII: converted from Kd_obs, pH 7.0, FTSA.
A further data set concerns the target CAIV (Homo sapiens, UniProt P22748). Briefly: fluorescent thermal shift assay (FTSA), CAIV. In kind it is binding. The conditions noted are these: 37 °C; for ΔGintr CAIV: converted from Kd_intr, independent of pH; for ΔGobs CAIV: converted from Kd_obs, pH 7.0, FTSA.
A further data set concerns the target CAVA (Homo sapiens, UniProt P35218). Briefly: fluorescent thermal shift assay (FTSA), CAVA. The conditions noted are these: 37 °C; for ΔGintr CAVA: converted from Kd_intr, independent of pH; for ΔGobs CAVA: converted from Kd_obs, pH 7.0, FTSA. In kind it is binding.
In a further data set the target is CAVB (Homo sapiens, UniProt Q9Y2D0). The data set can be described thus: fluorescent thermal shift assay (FTSA), CAVB. The conditions noted are these: 37 °C; for ΔGintr CAVB: converted from Kd_intr, independent of pH; for ΔGobs CAVB: converted from Kd_obs, pH 7.0, FTSA. Format: binding.
In another data set the target is CAVI (Homo sapiens, UniProt P23280). The data set can be described thus: fluorescent thermal shift assay (FTSA), CAVI. Format: binding. The conditions noted are these: 37 °C; for ΔGintr CAVI: converted from Kd_intr, independent of pH; for ΔGobs CAVI: converted from Kd_obs, pH 7.0, FTSA.
The target of another data set is CAVII (Homo sapiens, UniProt P43166). Briefly: fluorescent thermal shift assay (FTSA), CAVII. In kind it is binding. The conditions noted are these: 37 °C; for ΔGintr CAVII: converted from Kd_intr, independent of pH; for ΔGobs CAVII: converted from Kd_obs, pH 7.0, FTSA.
Another data set has as its target CAIX (Homo sapiens, UniProt Q16790). The data set can be described thus: fluorescent thermal shift assay (FTSA), CAIX. In kind it is binding. The conditions noted are these: for ΔGobs CAIX: pH 7.
A further data set concerns the target CAXII (Homo sapiens, UniProt O43570). Briefly: fluorescent thermal shift assay (FTSA), CAXII. In kind it is binding. The conditions noted are these: 37 °C; for ΔGintr CAXII: converted from Kd_intr, independent of pH; for ΔGobs CAXII: converted from Kd_obs, pH 7.0, FTSA.
In another data set the target is CAXIII (Homo sapiens, UniProt Q8N1Q1). Briefly: fluorescent thermal shift assay (FTSA), CAXIII. In kind it is binding. The conditions noted are these: 37 °C; for ΔGobs CAXIII: converted from Kd_obs, pH 7.0, FTSA; for ΔGintr CAXIII: converted from Kd_intr, independent of pH.
In the next data set the target is CAXIV (Homo sapiens, UniProt Q9ULX7). Briefly: fluorescent thermal shift assay (FTSA), CAXIV. In kind it is binding. The conditions noted are these: 37 °C; for ΔGintr CAXIV: converted from Kd_intr, independent of pH; for ΔGobs CAXIV: converted from Kd_obs, pH 7.0, FTSA.
Data set [1] is described as follows: determination of pKa of the sulfonamide group by UV-VIS spectra at various pH. The conditions noted are these: for f RSO2NH-, fraction of deprotonated sulfonamide: at pH 7.0, calculated from pKa; for pKa: calculated from spectra at various pH, 37 °C. In kind it is physicochemical.

Chain of CAVII (P43166 whole entry): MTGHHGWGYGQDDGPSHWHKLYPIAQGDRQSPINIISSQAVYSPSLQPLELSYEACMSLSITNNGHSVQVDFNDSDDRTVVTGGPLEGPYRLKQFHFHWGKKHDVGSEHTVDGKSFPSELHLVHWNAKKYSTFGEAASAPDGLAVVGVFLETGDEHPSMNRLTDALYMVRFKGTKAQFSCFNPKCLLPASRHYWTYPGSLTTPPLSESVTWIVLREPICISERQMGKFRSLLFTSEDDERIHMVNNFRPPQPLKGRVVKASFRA
Chain of CAI (P00915 whole entry): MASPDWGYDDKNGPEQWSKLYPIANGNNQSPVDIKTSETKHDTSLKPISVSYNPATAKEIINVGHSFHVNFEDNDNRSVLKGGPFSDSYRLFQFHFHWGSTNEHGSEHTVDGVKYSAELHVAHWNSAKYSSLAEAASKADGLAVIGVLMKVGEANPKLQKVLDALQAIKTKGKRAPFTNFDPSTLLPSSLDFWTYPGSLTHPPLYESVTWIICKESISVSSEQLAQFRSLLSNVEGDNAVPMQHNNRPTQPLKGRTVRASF
Chain of CAXII (O43570 25-354): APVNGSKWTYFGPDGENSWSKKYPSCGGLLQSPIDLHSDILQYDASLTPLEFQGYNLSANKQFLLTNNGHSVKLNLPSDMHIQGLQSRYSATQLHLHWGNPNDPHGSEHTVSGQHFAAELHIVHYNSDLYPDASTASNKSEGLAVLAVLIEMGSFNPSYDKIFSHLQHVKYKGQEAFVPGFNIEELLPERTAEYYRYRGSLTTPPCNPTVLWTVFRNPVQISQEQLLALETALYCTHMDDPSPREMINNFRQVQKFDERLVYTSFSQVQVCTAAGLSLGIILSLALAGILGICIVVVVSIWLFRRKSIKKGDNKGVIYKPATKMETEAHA
Chain of CAXIII (Q8N1Q1 whole entry): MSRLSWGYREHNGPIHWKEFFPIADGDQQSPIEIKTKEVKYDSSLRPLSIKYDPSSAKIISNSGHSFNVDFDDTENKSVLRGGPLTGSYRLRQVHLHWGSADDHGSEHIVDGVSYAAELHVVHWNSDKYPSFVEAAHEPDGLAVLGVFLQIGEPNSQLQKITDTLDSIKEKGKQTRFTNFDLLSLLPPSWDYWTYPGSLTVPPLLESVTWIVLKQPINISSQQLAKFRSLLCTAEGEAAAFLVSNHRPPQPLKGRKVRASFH
Chain of CAVA (P35218 39-305): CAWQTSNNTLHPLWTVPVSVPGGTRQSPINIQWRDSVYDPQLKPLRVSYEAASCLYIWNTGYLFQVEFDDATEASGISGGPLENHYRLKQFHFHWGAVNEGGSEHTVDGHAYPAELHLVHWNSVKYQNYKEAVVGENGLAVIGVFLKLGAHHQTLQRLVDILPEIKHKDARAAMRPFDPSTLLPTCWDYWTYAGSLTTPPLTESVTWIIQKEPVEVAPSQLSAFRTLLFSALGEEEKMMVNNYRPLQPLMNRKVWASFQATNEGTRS
Chain of CAXIV (Q9ULX7 16-337): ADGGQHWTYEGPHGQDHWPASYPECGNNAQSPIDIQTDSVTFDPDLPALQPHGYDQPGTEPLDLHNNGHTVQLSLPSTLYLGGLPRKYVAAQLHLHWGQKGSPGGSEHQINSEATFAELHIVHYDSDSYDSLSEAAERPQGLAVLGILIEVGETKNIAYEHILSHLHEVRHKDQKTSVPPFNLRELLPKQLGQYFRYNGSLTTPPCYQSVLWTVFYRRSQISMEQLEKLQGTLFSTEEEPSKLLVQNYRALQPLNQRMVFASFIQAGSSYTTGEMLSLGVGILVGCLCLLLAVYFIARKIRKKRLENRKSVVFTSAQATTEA
Chain of CAVB (Q9Y2D0 34-317): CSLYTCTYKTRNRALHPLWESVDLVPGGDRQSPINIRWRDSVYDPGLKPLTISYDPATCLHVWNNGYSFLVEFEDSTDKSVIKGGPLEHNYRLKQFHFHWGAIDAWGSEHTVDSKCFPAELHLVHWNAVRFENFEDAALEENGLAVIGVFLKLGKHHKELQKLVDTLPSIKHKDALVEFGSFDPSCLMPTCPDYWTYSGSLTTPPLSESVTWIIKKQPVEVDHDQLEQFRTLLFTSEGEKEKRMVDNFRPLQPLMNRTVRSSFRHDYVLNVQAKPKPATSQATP
Chain of CAVI (P23280 18-308): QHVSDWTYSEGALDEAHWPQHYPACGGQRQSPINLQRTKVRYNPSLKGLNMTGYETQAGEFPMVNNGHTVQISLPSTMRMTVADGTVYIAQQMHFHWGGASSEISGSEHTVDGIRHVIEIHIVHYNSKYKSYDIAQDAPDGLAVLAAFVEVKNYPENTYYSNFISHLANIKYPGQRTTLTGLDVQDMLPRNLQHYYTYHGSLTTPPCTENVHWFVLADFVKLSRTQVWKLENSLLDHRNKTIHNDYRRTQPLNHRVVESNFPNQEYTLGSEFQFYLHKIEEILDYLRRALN
Chain of CAIII (P07451 whole entry): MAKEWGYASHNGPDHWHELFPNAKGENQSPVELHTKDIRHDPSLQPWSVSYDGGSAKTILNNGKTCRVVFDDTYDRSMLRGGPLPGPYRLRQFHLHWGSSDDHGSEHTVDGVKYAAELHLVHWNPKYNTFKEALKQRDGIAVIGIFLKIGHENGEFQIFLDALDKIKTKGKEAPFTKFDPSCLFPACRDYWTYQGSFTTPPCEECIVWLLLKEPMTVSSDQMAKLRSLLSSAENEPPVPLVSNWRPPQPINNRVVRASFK
Chain of CAIV (P22748 19-312): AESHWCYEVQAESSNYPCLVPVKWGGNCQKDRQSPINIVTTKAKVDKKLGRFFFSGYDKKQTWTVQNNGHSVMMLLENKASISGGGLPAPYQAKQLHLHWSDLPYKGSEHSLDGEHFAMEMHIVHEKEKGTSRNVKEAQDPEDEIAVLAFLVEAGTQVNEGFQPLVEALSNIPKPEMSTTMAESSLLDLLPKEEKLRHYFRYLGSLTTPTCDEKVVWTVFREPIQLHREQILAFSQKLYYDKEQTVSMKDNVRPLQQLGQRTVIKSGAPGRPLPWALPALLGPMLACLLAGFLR

What is called pKa is the pH at which an ionisable group is half protonated. As for `COC(=O)c1cc(S(N)(=O)=O)c(Cl)cc1Cl` [Compound 1, Methyl 2,4-dichloro-5-sulfamoyl-benzoate], on CAI, the “ΔGintr CAI” value is -40.3 kJ/mol and the “ΔGobs CAI” value was -28.8 kJ/mol. Also, at CAII, the “ΔGintr CAII” value was -55.8 kJ/mol and the “ΔGobs CAII” value is -42.4 kJ/mol. Besides, at CAIII, the “ΔGintr CAIII” value is given as -40.5 kJ/mol and the “ΔGobs CAIII” value was -25.5 kJ/mol. At CAIV, the “ΔGintr CAIV” value is listed as -54.6 kJ/mol and the “ΔGobs CAIV” value is recorded as -40.0 kJ/mol. Also, on CAVA, the “ΔGintr CAVA” value is -43.1 kJ/mol and the “ΔGobs CAVA” value is reported as -30.7 kJ/mol. On CAVB, the “ΔGintr CAVB” value was -51.7 kJ/mol and the “ΔGobs CAVB” value is recorded as -38.6 kJ/mol. On CAVI, the “ΔGintr CAVI” value is listed as -57.7 kJ/mol and the “ΔGobs CAVI” value is given as -40.2 kJ/mol. Also, on CAVII, the “ΔGintr CAVII” value is reported as -56.4 kJ/mol and the “ΔGobs CAVII” value is recorded as -42.6 kJ/mol. Besides, at CAIX, the “ΔGintr CAIX” value is given as -57.5 kJ/mol and the “ΔGobs CAIX” value is recorded as -42.9 kJ/mol. For the same compound, at CAXII, the “ΔGintr CAXII” value is on record as -50.9 kJ/mol and the “ΔGobs CAXII” value is recorded as -37.1 kJ/mol. Further, the “ΔGobs CAXIII” value at CAXIII was -42.0 kJ/mol. Further, at CAXIV, the “ΔGintr CAXIV” value is -56.2 kJ/mol and the “ΔGobs CAXIV” value is given as -42.4 kJ/mol. In addition, in [1], the “f RSO2NH-, fraction of deprotonated sulfonamide” value (from here on “f RSO2NH-, fraction”) was 1.2% and the pKa was 8.9.
In the case of `COC(=O)c1cc(S(N)(=O)=O)c(Cl)cc1S(=O)(=O)Cc1ccccc1` [Compound 9c, Methyl 2-benzylsulfonyl-4-chloro-5-sulfamoylbenzoate], at CAI, the “ΔGintr CAI” value is given as -44.6 kJ/mol and the “ΔGobs CAI” value is -37.1 kJ/mol. Moreover, at CAII, the “ΔGintr CAII” value is -58.7 kJ/mol and the “ΔGobs CAII” value is -49.3 kJ/mol. Also, at CAIII, the “ΔGintr CAIII” value is -48.6 kJ/mol and the “ΔGobs CAIII” value is reported as -37.7 kJ/mol. In addition, at CAIV, the “ΔGintr CAIV” value was -52.1 kJ/mol and the “ΔGobs CAIV” value is on record as -41.6 kJ/mol. Moreover, at CAVB, the “ΔGintr CAVB” value was -62.2 kJ/mol and the “ΔGobs CAVB” value is -53.2 kJ/mol. Moreover, at CAVI, the “ΔGintr CAVI” value is on record as -60.0 kJ/mol and the “ΔGobs CAVI” value was -46.6 kJ/mol. Further, the “ΔGobs CAVII” value at CAVII is on record as -51.1 kJ/mol. At CAIX, the “ΔGobs CAIX” value was -51.1 kJ/mol. Further, at CAXII, the “ΔGintr CAXII” value is reported as -55.4 kJ/mol and the “ΔGobs CAXII” value was -45.7 kJ/mol. Besides, on CAXIII, the “ΔGintr CAXIII” value is recorded as -56.8 kJ/mol and the “ΔGobs CAXIII” value is given as -49.3 kJ/mol. At CAXIV, the “ΔGintr CAXIV” value is -60.7 kJ/mol and the “ΔGobs CAXIV” value is -51.0 kJ/mol. In addition, in data set [1], the “f RSO2NH-, fraction” value is recorded as 5.9% and the pKa was 8.2.
In the case of `COC(=O)c1cc(S(N)(=O)=O)c(Br)cc1Br` [Compound 2, Methyl 2,4-dibromo-5-sulfamoyl-benzoate], at CAI, the “ΔGintr CAI” value is -38.8 kJ/mol and the “ΔGobs CAI” value is on record as -27.9 kJ/mol. In addition, on CAII, the “ΔGintr CAII” value was -54.6 kJ/mol and the “ΔGobs CAII” value is listed as -41.8 kJ/mol. At CAIII, the “ΔGintr CAIII” value is given as not below -36.4 kJ/mol and the “ΔGobs CAIII” value was not below -22.0 kJ/mol. Also, at CAVB, the “ΔGintr CAVB” value is on record as -56.9 kJ/mol and the “ΔGobs CAVB” value was -44.4 kJ/mol. Also, at CAVI, the “ΔGintr CAVI” value is recorded as -55.8 kJ/mol and the “ΔGobs CAVI” value is recorded as -38.9 kJ/mol. In addition, on CAVII, the “ΔGintr CAVII” value is -56.3 kJ/mol and the “ΔGobs CAVII” value is given as -43.1 kJ/mol. On CAIX, the “ΔGintr CAIX” value is -55.1 kJ/mol and the “ΔGobs CAIX” value is -41.2 kJ/mol. At CAXII, the “ΔGintr CAXII” value was -51.6 kJ/mol and the “ΔGobs CAXII” value was -38.5 kJ/mol. In addition, on CAXIII, the “ΔGintr CAXIII” value is reported as -53.7 kJ/mol and the “ΔGobs CAXIII” value is -42.8 kJ/mol. On CAXIV, the “ΔGintr CAXIV” value is reported as -57.1 kJ/mol and the “ΔGobs CAXIV” value was -43.9 kJ/mol. In addition, in [1], the “f RSO2NH-, fraction” value is 1.6% and the pKa is 8.8.
For `COC(=O)c1cc(S(N)(=O)=O)c(S(=O)(=O)C2CCCCC2)cc1Cl` [Compound 7b, Methyl 2-chloro-4-cyclohexylsulfonyl-5-sulfamoylbenzoate], at CAI, the “ΔGintr CAI” value is given as -40.6 kJ/mol and the “ΔGobs CAI” value is recorded as -23.7 kJ/mol. For the same compound, on CAII, the “ΔGintr CAII” value is reported as -44.3 kJ/mol and the “ΔGobs CAII” value is given as -25.5 kJ/mol. In addition, on CAIII, the “ΔGintr CAIII” value is -44.1 kJ/mol and the “ΔGobs CAIII” value was -23.7 kJ/mol. On CAVA, the “ΔGintr CAVA” value is recorded as -41.4 kJ/mol and the “ΔGobs CAVA” value is -23.7 kJ/mol. On CAVB, the “ΔGintr CAVB” value is reported as -42.2 kJ/mol and the “ΔGobs CAVB” value is recorded as -23.7 kJ/mol. In addition, on CAVI, the “ΔGintr CAVI” value was -44.9 kJ/mol and the “ΔGobs CAVI” value was -22.1 kJ/mol. At CAVII, the “ΔGintr CAVII” value was not below -41.0 kJ/mol and the “ΔGobs CAVII” value is given as not below -22.0 kJ/mol. In addition, on CAIX, the “ΔGintr CAIX” value is given as -49.8 kJ/mol and the “ΔGobs CAIX” value was -29.9 kJ/mol. On CAXII, the “ΔGintr CAXII” value is -43.9 kJ/mol and the “ΔGobs CAXII” value is given as -24.8 kJ/mol. Besides, the “ΔGobs CAXIII” value on CAXIII is -24.7 kJ/mol. Further, at CAXIV, the “ΔGintr CAXIV” value is listed as -43.8 kJ/mol and the “ΔGobs CAXIV” value is -24.7 kJ/mol. Further, in data set [1], the “f RSO2NH-, fraction” value is 0.2% and the pKa was 9.8.
Take `COC(=O)c1cc(S(N)(=O)=O)c(Cl)cc1S(=O)(=O)c1cccc2ccccc12` [Compound 9f, Methyl 4-chloro-2-(1-naphthylsulfonyl)-5-sulfamoylbenzoate]: on CAI, the “ΔGintr CAI” value is given as -49.3 kJ/mol and the “ΔGobs CAI” value is given as -40.6 kJ/mol. Further, on CAII, the “ΔGintr CAII” value is reported as -63.4 kJ/mol and the “ΔGobs CAII” value is on record as -52.9 kJ/mol. At CAIV, the “ΔGintr CAIV” value is reported as -55.0 kJ/mol and the “ΔGobs CAIV” value is listed as -43.3 kJ/mol. Moreover, at CAVB, the “ΔGintr CAVB” value was -60.5 kJ/mol and the “ΔGobs CAVB” value was -50.3 kJ/mol. Besides, on CAVI, the “ΔGintr CAVI” value was -56.2 kJ/mol and the “ΔGobs CAVI” value is reported as -41.6 kJ/mol. Further, on CAVII, the “ΔGintr CAVII” value is -65.3 kJ/mol and the “ΔGobs CAVII” value was -54.5 kJ/mol. Besides, at CAIX, the “ΔGobs CAIX” value was -47.5 kJ/mol. On CAXII, the “ΔGintr CAXII” value is listed as -54.2 kJ/mol and the “ΔGobs CAXII” value is reported as -43.4 kJ/mol. Besides, at CAXIII, the “ΔGintr CAXIII” value is -61.5 kJ/mol and the “ΔGobs CAXIII” value is reported as -52.9 kJ/mol. Moreover, on CAXIV, the “ΔGintr CAXIV” value is on record as -60.7 kJ/mol and the “ΔGobs CAXIV” value is -49.9 kJ/mol. Also, in data set [1], the “f RSO2NH-, fraction” value is 3.8% and the pKa was 8.4.
